Where two headings read alike, the source gives them in different places. Numbered stars: 1 amine (or outer) side, 2 acyl side, 3 side chain; on linkers, the order of the positions; unused ones are H or OH. Square brackets hold non-standard residues; d marks the D form. Peptide text beside a SMILES is read from it. Trp(βS-Me,7-OMe) = COc1cccc2c([C@H](C)[C@H](N)C(=O)O)c[nH]c12; Phe(4-SO2NH2) = N[C@@H](Cc1ccc(S(N)(=O)=O)cc1)C(=O)O; Phe(2-F,4-COOH) = N[C@@H](Cc1ccc(C(=O)O)cc1F)C(=O)O; Trp(7-CN) = N#Cc1cccc2c(C[C@H](N)C(=O)O)c[nH]c12; Trp(7-Cl) = N[C@@H](Cc1c[nH]c2c(Cl)cccc12)C(=O)O; Ala(pyrimidin-5-yl) = N[C@@H](Cc1cncnc1)C(=O)O; Phe(4-CONH2) = NC(=O)c1ccc(C[C@H](N)C(=O)O)cc1; Phe(4-COOH) = N[C@@H](Cc1ccc(C(=O)O)cc1)C(=O)O; 4Pal(3S-Me) = C[C@@H](c1ccncc1)[C@H](N)C(=O)O; Trp(7-aza) = N[C@@H](Cc1c[nH]c2ncccc12)C(=O)O; Phe(4-CH2NH2) = NCc1ccc(C[C@H](N)C(=O)O)cc1; Pip(5R-OH) = O=C(O)[C@@H]1CC[C@@H](O)CN1; X1 = O=C([C@@H]1CC[C@H](N[*:1])C1)[*:2]; Met(O2) = CS(=O)(=O)CC[C@H](N)C(=O)O; 4Pal = N[C@@H](Cc1ccncc1)C(=O)O; dHyp = O=C(O)[C@H]1C[C@H](O)CN1; Ahp(2) = CCCCC[C@H](N)C(=O)O; hSer = N[C@@H](CCO)C(=O)O; αMeS = C[C@](N)(CO)C(=O)O; Nle = CCCC[C@H](N)C(=O)O; Sar = CNCC(=O)O
Legend:
[1] = molecular target: T1, human TNFR2 ECD protein (Homo sapiens, UniProt P20333); assay: SPR off-target binding (selectivity) to human TNFR2 ECD
T1 construct: HRV 3C protease cleavage site (C); 6His (C, cleaved yes); made in house; host or cells: Sf21 insect cells (baculovirus), secreted
T1 sequence (P20333 23-257): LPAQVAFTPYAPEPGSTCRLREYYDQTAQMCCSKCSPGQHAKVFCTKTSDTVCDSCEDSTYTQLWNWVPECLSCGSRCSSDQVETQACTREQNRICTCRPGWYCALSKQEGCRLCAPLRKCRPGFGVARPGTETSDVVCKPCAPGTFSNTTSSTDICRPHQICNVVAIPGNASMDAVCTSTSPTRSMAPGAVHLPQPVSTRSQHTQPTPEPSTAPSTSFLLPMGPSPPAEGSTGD
Summary of the method: (§1)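 Peptides are tested against captured biotin-tagged human TNFR1 ECD, with parallel TNFR2 ECD binding to check selectivity. Buffer: 10 mM HEPES pH 7.4, 150 mM NaCl, 3 mM EDTA, 0.05% P20, 2% DMSO.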

[2] = molecular target: T2, human TNFR1 extracellular domain (ECD) protein (Homo sapiens, UniProt P19438); assay: SPR binding affinity to captured human TNFR1 ECD
T2 construct: HRV 3C protease cleavage site (C); 6His (C, cleaved yes); made in house; host or cells: Sf21 insect cells (baculovirus), secreted
T2 sequence (P19438 30-211): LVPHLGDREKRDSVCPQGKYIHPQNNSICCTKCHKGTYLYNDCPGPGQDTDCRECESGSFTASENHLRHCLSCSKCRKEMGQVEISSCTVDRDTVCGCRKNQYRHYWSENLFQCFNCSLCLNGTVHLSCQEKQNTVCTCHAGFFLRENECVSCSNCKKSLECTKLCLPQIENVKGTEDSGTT
Summary of the method: as §1

[3] = molecular target: T3, human soluble TNFR1 (sTNFR1) (Homo sapiens, UniProt P19438); assay: Human sTNFR1-peptide displacement assay (LanthaScreen Eu TR-FRET binding assay)
T3 construct: made in house; host or cells: Sf21 (baculovirus)
T3 sequence (P19438 with tags, fused parts or gaps): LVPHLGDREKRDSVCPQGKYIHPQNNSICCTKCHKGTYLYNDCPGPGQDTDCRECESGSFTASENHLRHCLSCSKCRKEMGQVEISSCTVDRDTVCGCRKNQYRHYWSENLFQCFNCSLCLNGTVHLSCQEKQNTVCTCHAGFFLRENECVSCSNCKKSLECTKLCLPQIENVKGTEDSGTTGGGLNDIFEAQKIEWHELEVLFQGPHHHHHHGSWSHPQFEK
Summary of the method: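 Readout is the 665/615 nm TR-FRET ratio (Eu anti-His donor, streptavidin-Alexa647 acceptor), normalized to DMSO and saturating displacer, fit by Morrison-based five-parameter logistic for Kd^app. His-tagged sTNFR1 (1-211) prebound to 100 nM biotinylated peptide SEQ ID NO.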

[4] = biotinylated human TNFR2 ECD on streptavidin chip, read-out: SPR hTNFR2 KD
[5] = biotinylated human TNFR1 ECD on streptavidin chip, from kon and koff, read-out: SPR hTNFR1 KD
[6] = displacement of biotinylated peptide SEQ ID NO. 1 from sTNFR1, 20 point titration, 5-parameter fit based on Morrison equation (tight binding), read-out: TR-FRET Kd^app

| Compound | Kd [1, 4] [nM] | Kd [2, 5] [nM] | Kd [3, 6] [nM] | Kd [1] [nM] | Kd [2] [nM] | Kd [3] [nM] |
| --- | --- | --- | --- | --- | --- | --- |
| CCCC[C@@H]1NC(=O)[C@@H]2CC[C@@H](C2)NC(=O)[C@H]([C@@H](C)c2c[nH]c3c(OC)cccc23)NC(=O)CN(C)C(=O)[C@H](Cc2ccc(CN)cc2)NC(=O)[C@H](Cc2ccc(C(N)=O)cc2)NC(=O)[C@](C)(CO)NC(=O)[C@H](Cc2c[nH]c3c(C#N)cccc23)NC(=O)[C@H](Cc2ccc(C(=O)O)cc2)NC(=O)[C@H](CC(N)=O)NC(=O)[C@H]2C[C@H](O)CN2C(=O)[C@H](Cc2c[nH]c3ccccc23)NC(=O)[C@@H]2CC[C@@H](O)CN2C(=O)[C@H](Cc2ccncc2)NC1=O [SEQ ID NO. 48] (cyclo([4Pal][Pip(5R-OH)]W[dHyp]N[Phe(4-COOH)][Trp(7-CN)][αMeS][Phe(4-CONH2)][Phe(4-CH2NH2)][Sar][Trp(βS-Me,7-OMe)][X1][Nle])) | > 1000 | 0.03 | 0.15 | – | – | – |
| CCCCC[C@@H]1NC(=O)[C@@H]2CC[C@@H](C2)NC(=O)[C@H]([C@@H](C)c2c[nH]c3c(OC)cccc23)NC(=O)CN(C)C(=O)[C@H](Cc2ccc(C(N)=O)cc2)NC(=O)[C@H](Cc2ccc(C(N)=O)cc2)NC(=O)[C@](C)(CO)NC(=O)[C@H](Cc2c[nH]c3c(C#N)cccc23)NC(=O)[C@H](Cc2ccc(C(=O)O)cc2)NC(=O)[C@H](CC(N)=O)NC(=O)[C@H]2C[C@H](O)CN2C(=O)[C@H](Cc2c[nH]c3ccccc23)NC(=O)[C@H](CCS(C)(=O)=O)NC(=O)[C@H]([C@@H](C)c2ccncc2)NC1=O [SEQ ID NO. 49] (cyclo([Ahp(2)][4Pal(3S-Me)][Met(O2)]W[dHyp]N[Phe(4-COOH)][Trp(7-CN)][αMeS][Phe(4-CONH2)][Phe(4-CONH2)][Sar][Trp(βS-Me,7-OMe)][X1])) | – | – | – | > 1000 | 0.08 | 0.2 |
| CCCCC[C@@H]1NC(=O)[C@@H]2CC[C@@H](C2)NC(=O)[C@H]([C@@H](C)c2c[nH]c3c(OC)cccc23)NC(=O)CN(C)C(=O)[C@H](Cc2ccc(C(N)=O)cc2)NC(=O)[C@H](Cc2ccc(C(N)=O)cc2)NC(=O)[C@](C)(CO)NC(=O)[C@H](Cc2c[nH]c3c(C#N)cccc23)NC(=O)[C@H](Cc2ccc(C(=O)O)cc2)NC(=O)[C@H](CC(N)=O)NC(=O)[C@H]2C[C@H](O)CN2C(=O)[C@H](Cc2c[nH]c3ccccc23)NC(=O)[C@H](CCO)NC(=O)[C@H]([C@@H](C)c2ccncc2)NC1=O [SEQ ID NO. 50] (cyclo([Ahp(2)][4Pal(3S-Me)][hSer]W[dHyp]N[Phe(4-COOH)][Trp(7-CN)][αMeS][Phe(4-CONH2)][Phe(4-CONH2)][Sar][Trp(βS-Me,7-OMe)][X1])) | – | – | – | > 1000 | 0.04 | 0.2 |
| CCCC[C@@H]1NC(=O)[C@@H]2CC[C@@H](C2)NC(=O)[C@H]([C@@H](C)c2c[nH]c3c(OC)cccc23)NC(=O)CN(C)C(=O)[C@H](Cc2ccc(C(=O)O)cc2F)NC(=O)[C@H](Cc2ccc(S(N)(=O)=O)cc2)NC(=O)[C@](C)(CO)NC(=O)[C@H](Cc2c[nH]c3c(C#N)cccc23)NC(=O)[C@H](Cc2ccc(C(=O)O)cc2F)NC(=O)[C@H](CC(N)=O)NC(=O)[C@H]2C[C@H](O)CN2C(=O)[C@H](Cc2c[nH]c3ncccc23)NC(=O)[C@@H]2CC[C@@H](O)CN2C(=O)[C@H](Cc2cncnc2)NC1=O [SEQ ID NO. 51] (cyclo(N[Phe(2-F,4-COOH)][Trp(7-CN)][αMeS][Phe(4-SO2NH2)][Phe(2-F,4-COOH)][Sar][Trp(βS-Me,7-OMe)][X1][Nle][Ala(pyrimidin-5-yl)][Pip(5R-OH)][Trp(7-aza)][dHyp])) | > 1000 | 0.08 | 0.05 | – | – | – |
| CCCC[C@@H]1NC(=O)[C@@H]2CC[C@@H](C2)NC(=O)[C@H]([C@@H](C)c2c[nH]c3c(OC)cccc23)NC(=O)CN(C)C(=O)[C@H](Cc2ccc(C(=O)O)cc2)NC(=O)[C@H](Cc2ccc(C(N)=O)cc2)NC(=O)[C@](C)(CO)NC(=O)[C@H](Cc2c[nH]c3c(Cl)cccc23)NC(=O)[C@H](Cc2ccncc2)NC(=O)[C@H](CC(N)=O)NC(=O)[C@H]2C[C@H](O)CN2C(=O)[C@H](Cc2c[nH]c3ccccc23)NC(=O)[C@@H]2CC[C@@H](O)CN2C(=O)[C@H](Cc2ccncc2)NC1=O [SEQ ID NO. 53] (cyclo([4Pal][Trp(7-Cl)][αMeS][Phe(4-CONH2)][Phe(4-COOH)][Sar][Trp(βS-Me,7-OMe)][X1][Nle][4Pal][Pip(5R-OH)]W[dHyp]N)) | > 1000 | 0.02 | 0.09 | – | – | – |

Source: US20240287138A1, “CYCLIC PEPTIDES FOR INHIBITING TNF RECEPTOR 1 ACTIVITY” (Merck Sharp & Dohme LLC, priority 2023, published 2024)
